Measured values as given in patent US6984649B1, “Pyridine derivatives” (Bayer Aktiengesellschaft, priority 2000, dated 2006).
Where a name gives a salt, the structure may show the parent alone.

The compounds below were run against T1, human IKK-β (Homo sapiens, UniProt O14920) (assay: IKK-β kinase inhibitory assay). Conditions: compounds as yielded by solid phase synthesis, purity about 40 to 90%, read-out: In vitro activity grade (In vitro IC50).
T1 construct: A cDNA fragment encoding human IKK-β open reading frame was generated by PCR; His tag (from pcDNA3.1/His C); made in house; host or cells: Sf21 insect cells (baculovirus); substrate made in E. coli
T1 sequence (O14920 1-756): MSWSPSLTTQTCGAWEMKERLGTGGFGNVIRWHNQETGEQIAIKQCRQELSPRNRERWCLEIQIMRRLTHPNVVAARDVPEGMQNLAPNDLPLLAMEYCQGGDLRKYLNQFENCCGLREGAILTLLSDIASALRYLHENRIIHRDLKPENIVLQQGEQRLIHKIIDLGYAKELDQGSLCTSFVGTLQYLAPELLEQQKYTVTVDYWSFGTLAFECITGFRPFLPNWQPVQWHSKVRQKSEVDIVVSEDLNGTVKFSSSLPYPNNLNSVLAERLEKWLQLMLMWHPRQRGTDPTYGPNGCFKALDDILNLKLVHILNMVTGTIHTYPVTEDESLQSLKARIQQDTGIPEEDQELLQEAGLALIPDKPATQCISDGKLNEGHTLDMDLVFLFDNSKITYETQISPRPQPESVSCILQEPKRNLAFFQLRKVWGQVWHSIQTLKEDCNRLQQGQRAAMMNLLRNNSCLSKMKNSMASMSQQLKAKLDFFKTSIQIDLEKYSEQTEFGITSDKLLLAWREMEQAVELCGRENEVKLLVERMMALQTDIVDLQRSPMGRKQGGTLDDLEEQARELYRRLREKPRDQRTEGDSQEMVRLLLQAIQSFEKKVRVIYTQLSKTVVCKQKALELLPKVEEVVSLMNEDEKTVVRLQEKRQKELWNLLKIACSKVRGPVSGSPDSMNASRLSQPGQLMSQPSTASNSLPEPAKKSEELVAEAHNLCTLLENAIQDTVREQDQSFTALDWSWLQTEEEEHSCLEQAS
Format: biochemical
Source text: [IKK-β Kinase Inhibitory Assay]
(1) Preparation of IKK-β Kinase Protein.
• A cDNA fragment encoding human IKK-β open reading frame was generated by PCR with the use of a pair of primers designed from the published sequence (Woronicz J D et al. (1997) Science 278, 866-869). A template was obtained from Quickclone cDNA (Clontech) using Elongase™ Amplification kit (Life Technologies). The DNA fragments generated by PCR were gel-purified and subcloned into pBluescript. The cDNA fragment cloned in pBluescript was inserted into pcDNA3.1/His C KpnI/NotI, and transferred into pVL1393 SmaI/XbaI (Pharmingen) to construct a baculovirus transfer vector. Then the vector, together with the linearized baculovirus (BaculoGold™, Pharmingen) was used to transfect Sf21 cells (Invitrogen, San Diego, Calif.). Generated recombinant baculovirus was cloned and amplified in Sf21 cells, grown in TNM-FH insect cell medium (Life Technologies, Inc.) supplemented with 10% FCS, […] Gentamycin, 0.1% Pluronic F-68 (Life Technologies, Inc.) as suspension culture (200 ml in 1 L Erlenmeyer flask; 27° C.; 130 rpm). Sf21 cells were infected with this amplified virus with a multiplicity of infection of 5 following standard protocols (Crossen R, Gruenwald S (1997) Baculovirus Expression Vector System Instruction Manual, Pharmingen Corporation) and harvested 48 hrs later. The cells were lysed to obtain the produced chimeric protein of IKK-β kinase fused by histidine (His-tagged IKK-beta). (2) The Preparation of Purified GST-IκBα Fusion Proteins • An expression vector containing the nucleotide sequence encoding fusion protein of GST with amino acid residues 1 to 54 of IκBα under the control of an IPTG-inducible promoter was constructed. The expression vector was introduced in E. coli and the transformant was cultured and lysed to obtain a GST-IκBα fusion protein. Then the resulting GST-IκBα fusion protein was purified and biotinated for kinase assay. (3) The Measurement of IKK-β Kinase Activity • The 96-well format kinase assay of IKK-β were performed to test the inhibitory activity of the compounds of the present invention. First, 5 μl of a test compound was put in the presence of 2.5% dimethyl sulfoxide (DMSO) in each well in a U-bottomed 96-well plate (Falcon). For control wells of background (BG) and total phosphorylation (TP), 5 μl of 2.5% DMSO was put. Recombinant IKK-β (final 0.6 μg/ml) and bio-GST-IκBα (1-54) (final 0.2 μM) were diluted in 25 μl of 2×kinase buffer β (40 mM Tris-HCl, pH 7.6, 40 mM MgCl2, 40 mM β-glycerophosphate, 40 mM p-nitrophenylphosphate, 2 mM EDTA, 40 mM creatine phosphate, 2 mM DTT, 2 mM Na3VO4, 0.2 mg/ml BSA and 0.8 mM phenylmethylsulfonyl fluoride) and transferred to the 96-well plate. Bio-GST-IκBα (1-54) in 25 μl of 2×kinase buffer β without IKK-β was transferred to BG wells. Then 20 μl of 12.5 μM ATP, 62.5 μCi/ml [γ-^33P] ATP (Amersham Pharmacia Biotech) was added and the resulting mixture was incubated for 2 hrs at room temperature. The kinase reactions were terminated by the addition of 150 μl of termination buffer (100 mM EDTA, 1 mg/ml BSA, 0.2 mg NaN3). One hundred and fifty μl of the sample were transferred to a streptavidin-coated, white MTP (Steffens Biotechniche Analysen GmbH #08114E14.FWD) to capture the biotinylated substrates. After 1 hr of incubation, non-bound radioactivity was eliminated by washing the wells five times with 300 μl of washing buffer including 0.9% NaCl and 0.1% (w/v) Tween-20 with the use of a MW-96 plate washer (BioTec). The bound radioactivity was determined after the addition of 170 μl MicroScint-PS scintillation cocktail (Packard) using a TopCount scintillation counter. [Syk Tyrosine Kinase Inhibitory Assay for Selectivity] (1) Preparation of Syk Protein • A cDNA fragment encoding human Syk openreading frame was cloned from total RNA of human Burkitt's lymphoma B cell lines, Raji (American Type Culture Collection), with the use of RT-PCR method.

`O=C1NCc2c(C3CCCNC3)cc(-c3c(O)cccc3OCC3CC3)nc2N1` (centres unmarked) [Example 22-2, 7-[2-(cyclopropylmethoxy)-6-hydroxyphenyl]-5-(3-piperidinyl)-3,4-dihydro-1H-pyrido[2,3-d]-pyrimidin-2-one hydrochloride] and `Oc1cccc(OCC2CC2)c1-c1cc(C2CCCNC2)c2c(n1)NCCC2` (centres unmarked) [Example 28-01, 3-(cyclopropylmethoxy)-2-[4-(3-piperidinyl)-5,6,7,8-tetrahydro-1,8-naphthyridin-2-yl]phenol] cannot be ordered by IC50: less than 500 nM for the first, less than 500 nM for the second.

`Nc1nc(-c2c(O)cccc2OCC2CC2)cc(C2CCNCC2)c1COc1ccccc1` [Example 21-3, 2-[6-amino-5-(phenoxymethyl)-4-(4-piperidinyl)-2-pyridinyl]-3-(cyclopropylmethoxy)phenol hydrochloride] and `Nc1nc(-c2c(O)cccc2OCC2CC2)cc(C2CCNCC2)c1CON1C(=O)CCC1=O` [Example 21-4, 1-{[2-amino-6-[2-(cyclopropylmethoxy)-6-hydroxyphenyl]-4-(4-piperidinyl)-3-pyridinyl]methoxy}-2,5-pyrrolidinedione hydrochloride] cannot be ordered by IC50: less than 500 nM for the first, less than 500 nM for the second.

`N#Cc1c(N)nc(-c2ccccc2O)c(F)c1C1CCCNC1` (centres unmarked) [Example 1-4, 2-amino-5-fluoro-6-(2-hydroxyphenyl)-4-(3-piperidinyl)-nicotinonitrile trifluoroacetate] and `Nc1nc(-c2ccccc2O)cc(C2CCCNC2)c1C(=O)O` (centres unmarked) [Example 9-2, 2-amino-6-(2-hydroxyphenyl)-4-(3-piperidinyl)nicotinic acid hydrochloride] cannot be ordered by IC50: less than 500 nM for the first, less than 500 nM for the second.

`CNC(=O)c1c(C2CCCNC2)cc(-c2c(O)cccc2OCC2CC2)nc1N` (centres unmarked) [Example 8-3, 2-amino-6-[2-(cyclopropylmethoxy)-6-hydroxyphenyl]-N-methyl-4-(3-piperidinyl)nicotinamide hydrochloride] and `Nc1nc(-c2c(O)cccc2OCC2CC2)cc(C2CCCNC2)c1C(=O)O` (centres unmarked) [Example 9-3, 2-amino-6-[2-(cyclopropylmethoxy)-6-hydroxyphenyl]-4-(3-piperidinyl)nicotinic acid hydrochloride] cannot be ordered by IC50: less than 500 nM for the first, less than 500 nM for the second.

First: N#Cc1c(C2CCCNC2)cc(-c2ccccc2O)nc1Nc1ccccc1 (centres unmarked) [Example 4-4, hydrochloride]
Second: N#Cc1c(C2CCCNC2)cc(-c2c(O)cccc2OCc2ccccc2)nc1N (centres unmarked) [Example 2-2, 2-amino-6-[2-(benzyloxy)-6-hydroxyphenyl]-4-(3-piperidinyl)nicotinonitrile hydrochloride]
The IC50 of the first is higher: greater than 10000 nM for the first, less than 500 nM for the second. The second is the more potent here.

`O=C(Nc1cc2c(C3CCCNC3)cc(-c3c(O)cccc3OCC3CC3)nc2[nH]c1=O)c1ccccc1` (centres unmarked) [Example 29-2, N-[7-[2-(cyclopropylmethoxy)-6-hydroxyphenyl]-2-oxo-5-(3-piperidinyl)-1,2-dihydro-1,8-naphthyridin-3-yl]benzamide hydrochloride] and `CC(=O)Nc1cc2c(C3CCCNC3)cc(-c3c(O)cccc3OCC3CC3)nc2[nH]c1=O` (centres unmarked) [Example 29-3, N-[7-[2-(cyclopropylmethoxy)-6-hydroxyphenyl]-2-oxo-5-(3-piperidinyl)-1,2-dihydro-1,8-naphthyridin-3-yl]acetamide hydrochloride] cannot be ordered by IC50: less than 500 nM for the first, less than 500 nM for the second.

Compared with `CC(C)(C)OC(=O)c1c(C2CCCNC2)cc(-c2ccccc2O)nc1N` (centres unmarked) [Example 9-1, tert-butyl 2-amino-6-(2-hydroxyphenyl)-4-(3-piperidinyl)nicotinate hydrochloride], `CNC(=O)c1c(C2CCCNC2)cc(-c2ccccc2O)nc1N` (centres unmarked) [Example 8-2, 2-amino-6-(2-hydroxyphenyl)-N-methyl-4-(3-piperidinyl)nicotinamide hydrochloride] is higher in IC50: less than 500 nM for the first, 500 to 2000 nM for the second. The first is the more potent here.

First: CNC1CCCC(c2cc(-c3ccccc3O)nc(N)c2C#N)C1 (centres unmarked) [Example 1-5, 2-amino-6-(2-hydroxyphenyl)-4-[3-methylamino]cyclohexyl]nicotinonitrile hydrochloride]
Second: N#Cc1c(C2CCCC(C(=O)O)C2)cc(-c2ccccc2O)nc1N (centres unmarked) [Example 1-8, 3-[2-amino-3-cyano-6-(2-hydroxyphenyl)-4-pyridinyl]cyclohexanecarboxylic acid]
The IC50 of the first is lower: less than 500 nM for the first, 500 to 2000 nM for the second. The first is the more potent here.

`O=C1NCc2c(C3CCCNC3)cc(-c3ccccc3O)nc2N1` (centres unmarked) [Example 22-1, 7-(2-hydroxyphenyl)-5-(3-piperidinyl)-3,4-dihydropyrido[2,3-d]pyrimidin-2(1H)-one hydrochloride] and `O=S1(=O)NCc2c(C3CCCNC3)cc(-c3ccccc3O)nc2N1` (centres unmarked) [Example 22-5, 2-[2,2-dioxido-5-(3-piperidinyl)-3,4-dihydro-1H-pyrido[2,3-c][1,2,6]thiadiazin-7-yl]phenol hydrochloride] cannot be ordered by IC50: less than 500 nM for the first, less than 500 nM for the second.

`CS(=O)(=O)NC(=O)c1cc2c(C3CCCNC3)cc(-c3c(O)cccc3OCC3CC3)nc2[nH]c1=O` (centres unmarked) [Example 31-2, N-{[7-[2-(cyclopropylmethoxy)-6-hydroxyphenyl]-2-oxo-5-(3-piperidinyl)-1,2-dihydro-1,8-naphthyridin-3-yl]carbonyl}methanesulfonamide hydrochloride] and `CN1CCCC(c2cc(-c3c(O)cccc3OCC3CC3)nc(N)c2C#N)C1` (centres unmarked) [Example 3-1, 2-amino-6-[2-(cyclopropylmethoxy)-6-hydroxyphenyl]-4-(1-methyl-3-piperidinyl)nicotinonitrile] cannot be ordered by IC50: less than 500 nM for the first, less than 500 nM for the second.

`O=c1[nH]c(=O)c2c(C3CCCNC3)cc(-c3ccccc3O)nc2[nH]1` (centres unmarked) [Example 7-2, 7-(2-hydroxyphenyl)-5-(3-piperidinyl)pyrido[2,3-d]pyrimidine-2,4(1H,3H)-dione hydrochloride] and `Nc1nc(-c2ccccc2O)cc(C2=CCCNC2)c1CO` [Example 11-4, 2-[6′-amino-5′-(hydroxymethyl)-1,2,5,6-tetrahydro-3,4′-bipyridin-2′-yl]phenol hydrochloride] cannot be ordered by IC50: less than 500 nM for the first, less than 500 nM for the second.

`N#Cc1c(C2CCCNC2)cc(-c2sccc2O)nc1N` (centres unmarked) [Example 1-7, 2-amino-6-(3-hydroxy-2-thienyl)-4-(3-piperidinyl)nicotinonitrile hydrobromide] was tested, and the IC50 was less than 500 nM.
